Results taken from paper PMC9151520 (Archives of Toxicology, 2022).
Read-outs that look alike come from different tables or passages of the source.

Assays:
[1] = system: p53 signaling (p53RE-bla HCT-116 cells); test: cells; format: cell-based
[2] = system: p53 signaling (p53RE-bla HCT-116 cells); test: cells; format: cell-based; remark: listed apart in the source
[3] = system: p53 signaling (p53RE-bla HCT-116 cells); test: cells; format: cell-based; conditions: Homo sapiens; for EC50: HCT-116; for Emax: HCT-116, read-out: efficacy
[4] = system: p53 signaling (p53RE-bla HCT-116 cells); conditions: for EC50: read-out: p53 activation EC50, RLM
[5] = system: p53 signaling (p53RE-bla HCT-116 cells)
[6] = rat
[7] = system: p53 signaling (p53RE-bla HCT-116 cells); test: cells; conditions: Homo sapiens; for Emax: HCT-116, read-out: efficacy
[8] = system: p53 signaling (p53RE-bla HCT-116 cells); test: cells; conditions: Homo sapiens, HCT-116, read-out: p53 activation EC50, HLM
in vitro = conditions: male, Sprague Dawley, rat, microsomes, pH 7.4
[9] = HCT-116, read-out: p53 activation EC50, RLM

CCOP(=S)(OCC)Oc1nc(Cl)c(Cl)cc1Cl [Chlorpyrifos]
activity outcome in p53-bla assay [1]: inactive | p53 activation EC50, No MS [1]: inactive | p53 activation Efficacy, No MS [1]: inactive | EC50 [2]: Inactive | EC50 [3]: 3.75 µM | Emax [3]: 45.2% | activity outcome in p53-bla assay [4]: activator of p53 signaling | EC50 [4]: 2.8 µM | p53 activation EC50, HLM [5]: inactive | Viability EC50, HLM (p53RE-bla HCT-116 cells): inactive | Viability EC50, No MS (p53RE-bla HCT-116 cells): inactive | Viability EC50, RLM (p53RE-bla HCT-116 cells): inactive | Viability Efficacy, HLM (p53RE-bla HCT-116 cells): inactive | Viability Efficacy, No MS (p53RE-bla HCT-116 cells): inactive | Viability Efficacy, RLM (p53RE-bla HCT-116 cells): inactive | Depletion after 16 h of incubation with cells [6]: 92.74 ± 1.38% | EC50 ([7]; HCT-116): 3.47 µM | Emax [7]: 50.6% | EC50 [7, 9]: 2.92 µM | EC50 [8]: 1.78 µM | half-life (in vitro): 1.11 ± 0.07 min

CCOP(=S)(OCC)SCCSCC [Disulfoton]
p53 activation EC50, No MS [1]: inactive | p53 activation Efficacy, No MS [1]: inactive | EC50 [2]: Inactive | EC50 [3]: 8.47 µM | Emax [3]: 43.6% | activity outcome in p53-bla assay [4]: induce p53 signaling | EC50 [4]: 3.97 µM | p53 activation EC50, HLM [5]: inactive | Viability EC50, HLM (p53RE-bla HCT-116 cells): inactive | Viability EC50, No MS (p53RE-bla HCT-116 cells): inactive | Viability EC50, RLM (p53RE-bla HCT-116 cells): inactive | Viability Efficacy, HLM (p53RE-bla HCT-116 cells): inactive | Viability Efficacy, No MS (p53RE-bla HCT-116 cells): inactive | Viability Efficacy, RLM (p53RE-bla HCT-116 cells): inactive | Depletion after 16 h of incubation with cells [6]: 93.89 ± 4.12% | EC50 ([7]; HCT-116): 9.13 µM | Emax [7]: 43.3% | EC50 [7, 9]: 7.78 µM | EC50 [8]: 5.07 µM | half-life (in vitro): > 120 min

CCOP(=S)(OCC)Oc1ccc2c(C)c(Cl)c(=O)oc2c1 [Coumaphos]
p53 activation EC50, No MS [1]: inactive | p53 activation Efficacy, No MS [1]: inactive | EC50 [2]: Inactive | EC50 [3]: 7.03 µM | Emax [3]: 68.7% | activity outcome in p53-bla assay [4]: induce p53 signaling | p53 activation EC50, HLM [5]: inactive | Viability EC50, HLM (p53RE-bla HCT-116 cells): inactive | Viability EC50, No MS (p53RE-bla HCT-116 cells): inactive | Viability EC50, RLM (p53RE-bla HCT-116 cells): inactive | Viability Efficacy, HLM (p53RE-bla HCT-116 cells): inactive | Viability Efficacy, No MS (p53RE-bla HCT-116 cells): inactive | Viability Efficacy, RLM (p53RE-bla HCT-116 cells): inactive | Depletion after 16 h of incubation with cells [6]: 99.03 ± 0.34% | EC50 ([7]; HCT-116): 5.95 µM | EC50 [8]: 0.891 µM | half-life (in vitro): 0.88 ± 0.12 min

CCOP(=O)(OCC)OC(=CCl)c1ccc(Cl)cc1Cl [Chlorfenvinphos]
p53 activation EC50, No MS [1]: inactive | p53 activation Efficacy, No MS [1]: inactive | EC50 ([2]; Homo sapiens, HCT-116, 0.5 h): 0.02 µM | EC50 [3]: 2.54 µM | EC50 [4]: 2.08 µM | p53 activation EC50, HLM [5]: inactive | Viability EC50, HLM (p53RE-bla HCT-116 cells): inactive | Viability EC50, No MS (p53RE-bla HCT-116 cells): inactive | Viability EC50, RLM (p53RE-bla HCT-116 cells): inactive | Viability Efficacy, HLM (p53RE-bla HCT-116 cells): inactive | Viability Efficacy, No MS (p53RE-bla HCT-116 cells): inactive | Viability Efficacy, RLM (p53RE-bla HCT-116 cells): inactive | Depletion after 16 h of incubation with cells [6]: 55.04 ± 4.69% | EC50 ([7]; HCT-116): 6.36 µM | Emax [7]: 66.8% | EC50 [7, 9]: 3.8 µM | EC50 [8]: 3.05 µM | half-life (in vitro): 28.6 ± 1.85 min
